Laboratory results reported in patent publication US20100048549A1, “Peptidomimetics selective for the somatostatin receptor subtypes 1 and/or 4” (priority 2005, published 2010).
Structures can show the parent of a compound that is named as a salt.

Each compound was assayed against T1, human somatostatin receptor subtype sst1 (Homo sapiens, UniProt P30872) (assay: Competition binding with 125I-LTT-SRIF-28, CHO cell membranes, sst1). Details: bound only; read-out: Ki values for the sst1.
T1 construct: expressed in transfected cells; host or cells: CHO cells (membranes)
Description: (§1) The affinity of the compounds of the invention for the five human somatostatin receptor subtypes (sst1, sst2, sst3, sst4, and sst5) was determined in competition binding assays with (^125I-Tyr)-[Leu^8, DTrp^22]-Somatostatin-28 (^125I-LTT-SRIF-28). The biological material for these experiments consisted of membranes from Chinese hamster ovary (CHO) cells stably transfected with one of the five human somatostatin receptor subtypes. Membranes (3-20 μg of total protein per sample) and trace amount of ^125I-LTT-SRIF-28 were incubated in 10 mM Hepes, 1 mM EDTA, 5 mM MgCl2, 5 mg/ml of BSA and 30 μg/ml bacitracin, pH 7.6, with six concentrations of the compounds. Each concentration was run in duplicate. Nonspecific binding was defined by 1 μM somatostatin-14 (SRIF-14) and corresponded to 5-25% of total binding. After 60 min at room temperature, incubations were terminated by rapid vacuum filtration through GF/B glass fiber filter mats (presoaked at 4° C. in 200 ml of 10 mM Hepes, 1 mM EDTA, 5 mM MgCl2, pH 7.6) and three 5 ml washes with ice-cold wash buffer (20 mM TRIS, 1 mM EDTA, 5 mM MgCl2, pH 7.4). The filters were then dried, impregnated with scintillate and their radioactivity was measured by scintillation counting. The analysis of the experiments was carried out by nonlinear least square curve fitting. Affinity constants (Ki) were calculated from the IC50 values according to the Cheng-Prusoff's equation (Cheng and Prusoff, 1973). Experiments were repeated a minimum of three times.

T1 sequence (P30872 whole entry): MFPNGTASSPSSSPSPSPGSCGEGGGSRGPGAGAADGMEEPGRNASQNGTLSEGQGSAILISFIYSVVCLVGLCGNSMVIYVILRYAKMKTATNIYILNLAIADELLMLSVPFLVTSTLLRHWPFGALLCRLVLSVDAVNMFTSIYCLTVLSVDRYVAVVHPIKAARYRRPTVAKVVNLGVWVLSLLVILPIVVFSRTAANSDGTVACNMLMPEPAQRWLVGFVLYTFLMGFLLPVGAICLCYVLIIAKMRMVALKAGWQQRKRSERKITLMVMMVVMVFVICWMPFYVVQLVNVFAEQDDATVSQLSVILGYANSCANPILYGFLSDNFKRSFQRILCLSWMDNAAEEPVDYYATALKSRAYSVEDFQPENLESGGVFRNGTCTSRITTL

Ki, < 300 nM:
Cc1ccc(S(=O)(=O)N[C@@H](CCNC(=N)N)COCc2ccccc2)c2ccccc12 [compound 4, (S)-4-methylnaphthalene-1-sulfonic acid (1-benzyloxymethyl-3-guanidinylpropyl)amide]
Cc1ccc(S(=O)(=O)N[C@@H](CCCN)COc2ccccc2)c2ccccc12 [compound 13, (S)-4-methylnaphthalene-1-sulfonic acid (4-amino-1-phenoxymethylbutyl)amide]
CCC(CC)NCCC[C@@H](COc1ccccc1)NS(=O)(=O)c1ccc(C)c2ccccc12 [compound 14, (S)-4-methylnaphthalene-1-sulfonic acid [4-(1-ethylpropylamino)-1-phenoxymethylbutyl]amide]
Cc1ccc(S(=O)(=O)N[C@@H](CCCN)COCc2ccccc2)c2ccccc12 [compound 15, (S)-4-methyl-naphthalene-1-sulfonic acid (4-amino-1-benzyloxymethylbutyl)amide]
Cc1ccc(S(=O)(=O)N[C@@H](CCCNC(C)C)CNC2CCCc3ccccc32)c2ccccc12 (stereo partly drawn) [compound 17, (S)-4-methylnaphthalene-1-sulfonic acid {4-isopropylamino-1-[(1,2,3,4-tetrahydronaphthalen-1-ylamino)methyl]butyl}amide]
Cc1ccc(S(=O)(=O)N[C@@H](CNCCN(C)C)COCc2ccccc2)c2ccccc12 [compound 27, (S)-4-methylnaphthalene-1-sulfonic acid {2-benzyloxy-1-[(2-dimethylaminoethylamino)methyl]ethyl}amide]
Cc1ccc(S(=O)(=O)NC(COCc2ccccc2)CC2CCCN2)c2ccccc12 (stereo not shown) [compound 32, 4-methylnaphthalene-1-sulfonic acid (1-benzyloxymethyl-2-pyrrolidin-2-ylethyl)amide]
Cc1ccc(S(=O)(=O)N[C@@H](CCCNC(C)C)CSCc2ccccc2)c2ccccc12 [compound 61, (S)-4-methylnaphthalene-1-sulfonic acid (1-benzylsulfanylmethyl-4-isopropylaminobutyl)amide]
Cc1ccc(S(=O)(=O)N[C@@H](CCCNC(C)C)COCc2ccccc2)c2ccccc12 [compound 62, (S)-4-methylnaphthalene-1-sulfonic acid (1-benzyloxymethyl-4-isopropylaminobutyl)amide]
Cc1ccc(S(=O)(=O)N[C@@H](C(=O)NCCNC(C)C)[C@H](C)OCc2ccccc2)c2ccccc12 [compound 71, (R)-4-methylnaphthalene-1-sulfonic acid [2-benzyloxy-2-(S)methyl-1-(2-isopropylaminoethylcarbamoyl)-ethyl]amide]
Cc1ccc(S(=O)(=O)N[C@@H](CCCNC(C)C)COc2ccc3cnccc3c2)c2ccccc12 [compound 105, (S)-4-methylnaphthalene-1-sulfonic acid [4-isopropylamino-1-(isoquinolin-6-yloxymethyl)butyl]amide]

Each compound was assayed against T2, human somatostatin receptor subtype sst4 (Homo sapiens, UniProt P31391) (assay: Competition binding with 125I-LTT-SRIF-28, CHO cell membranes, sst4). Details: bound only; read-out: Ki values for the sst4.
T2 construct: expressed in transfected cells; host or cells: CHO cells (membranes)
Description: as §1

T2 sequence (P31391 whole entry): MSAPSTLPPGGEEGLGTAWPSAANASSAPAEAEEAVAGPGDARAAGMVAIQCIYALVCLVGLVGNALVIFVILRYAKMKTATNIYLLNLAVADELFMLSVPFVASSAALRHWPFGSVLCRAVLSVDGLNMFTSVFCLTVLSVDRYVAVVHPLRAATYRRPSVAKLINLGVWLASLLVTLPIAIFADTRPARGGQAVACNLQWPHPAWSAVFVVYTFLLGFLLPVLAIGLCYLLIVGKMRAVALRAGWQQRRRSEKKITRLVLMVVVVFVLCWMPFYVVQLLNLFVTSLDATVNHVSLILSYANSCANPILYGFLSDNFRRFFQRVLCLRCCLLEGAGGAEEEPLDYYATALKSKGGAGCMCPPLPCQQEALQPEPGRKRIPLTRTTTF

Ki, < 300 nM:
Cc1ccc(S(=O)(=O)N[C@@H](CCCN)CSCc2ccccc2)c2ccccc12 [compound 1, (S)-4-methylnaphthalene-1-sulfonic acid (4-amino-1-benzylsulfanylmethylbutyl)amide]
Cc1ccc(S(=O)(=O)N[C@@H](CCN)COCc2ccccc2)c2ccccc12 [compound 3, (S)-4-methylnaphthalene-1-sulfonic acid (3-amino-1-benzyl-oxymethylpropyl)amide]
Cc1ccc(S(=O)(=O)N[C@@H](CCNC(=N)N)COCc2ccccc2)c2ccccc12 [compound 4, (S)-4-methylnaphthalene-1-sulfonic acid (1-benzyloxymethyl-3-guanidinylpropyl)amide]
Cc1ccc(COC[C@H](CCCN)NS(=O)(=O)c2ccc(C)c3ccccc23)cc1 [compound 12, (S)-4-methylnaphthalene-1-sulfonic acid [4-amino-1-(4-methylbenzyloxymethyl)butyl]amide]
Cc1ccc(S(=O)(=O)N[C@@H](CCCN)COc2ccccc2)c2ccccc12 [compound 13, (S)-4-methylnaphthalene-1-sulfonic acid (4-amino-1-phenoxymethylbutyl)amide]
Cc1ccc(S(=O)(=O)N[C@@H](CCCN)COCc2ccccc2)c2ccccc12 [compound 15, (S)-4-methyl-naphthalene-1-sulfonic acid (4-amino-1-benzyloxymethylbutyl)amide]
Cc1ccc(S(=O)(=O)N[C@H](COCc2ccccc2)C(=O)NCCN)c2ccccc12 [compound 24, (R)-4-methylnaphthalene-1-sulfonic acid [1-(2-aminoethylcarbamoyl)-2-benzyloxyethyl]amide]
Cc1ccc(S(=O)(=O)N[C@@H](CNCCN(C)C)COCc2ccccc2)c2ccccc12 [compound 27, (S)-4-methylnaphthalene-1-sulfonic acid {2-benzyloxy-1-[(2-dimethylaminoethylamino)methyl]ethyl}amide]
Cc1ccc(S(=O)(=O)N[C@H](CSCc2ccccc2)C(=O)NCCN)c2ccccc12 [compound 31, (S)-4-methylnaphthalene-1-sulfonic acid [1-(2-aminoethylcarbamoyl)-2-benzylsulfanylethyl]amide]
Cc1ccc(S(=O)(=O)NC(COCc2ccccc2)CC2CCCN2)c2ccccc12 (stereo not shown) [compound 32, 4-methylnaphthalene-1-sulfonic acid (1-benzyloxymethyl-2-pyrrolidin-2-ylethyl)amide]
Cc1ccc(S(=O)(=O)NC(CNCc2ccccc2)C2CCNCC2)c2ccccc12 (stereo not shown) [compound 34, 4-methylnaphthalene-1-sulfonic acid (2-benzylamino-1-piperidin-4-ylethyl)amide]
Cc1ccc(S(=O)(=O)N[C@@H](CCCN)CNCc2ccccc2)c2ccccc12 [compound 35, (S)-4-methylnaphthalene-1-sulfonic acid [4-amino-1-(benzylaminomethyl)butyl]amide]
Cc1ccc(S(=O)(=O)N[C@@H](CCCNC(C)C)COCc2ccccc2)c2ccccc12 [compound 62, (S)-4-methylnaphthalene-1-sulfonic acid (1-benzyloxymethyl-4-isopropylaminobutyl)amide]
Cc1ccc(S(=O)(=O)N[C@@H](CCCN)CSc2ccccc2)c2ccccc12 [compound 67, (S)-4-methylnaphthalene-1-sulfonic acid (4-amino-1-phenylsulfanylmethylbutyl)amide]
Cc1ccc(S(=O)(=O)N[C@@H](C(=O)NCCN)[C@H](C)OCc2ccccc2)c2ccccc12 [compound 70, (R)-4-methylnaphthalene-1-sulfonic acid [2-benzyloxy-2-(S)methyl-1-(aminoethylcarbamoyl)-ethyl]amide]
CCOC[C@H](CCCN)NS(=O)(=O)c1ccc(C)c2ccccc12 [compound 76, (S)-4-methylnaphthalene-1-sulfonic acid (4-amino-1-ethoxymethylbutyl)amide]
Cc1ccc(S(=O)(=O)NC(CCCN)CNC2CCCCC2)c2ccccc12 (stereo not shown) [compound 77, 4-methylnaphthalene-1-sulfonic acid (4-amino-1-cyclohexylaminomethyl-butyl)-amide formic acid salt]
NCCC[C@@H](COCc1ccccc1)NS(=O)(=O)c1ccc(F)c2ccccc12 [compound 78, (S)-4-fluoronaphthalene-1-sulfonic acid (4-amino-1-benzyloxymethylbutyl)amide]
Cc1ccc(S(=O)(=O)N[C@@H](CCCN)COCC(C)C)c2ccccc12 [compound 80, (S)-4-methylnaphthalene-1-sulfonic acid (4-amino-1-isobutoxymethylbutyl)amide]
NCCC[C@@H](COCc1ccccc1)NS(=O)(=O)c1cccc2ccccc12 [compound 83, (S)-naphthalene-1-sulfonic acid (4-amino-1-benzyloxymethylbutyl)amide]
Cc1ccc(S(=O)(=O)N[C@H](COc2ccccc2)Cc2c[nH]cn2)c2ccccc12 [compound 84, (S)-4-methylnaphthalene-1-sulfonic acid [2-(1H-imidazol-4-yl)-1-phenoxymethylethyl]amide]
Cc1ccc(S(=O)(=O)N[C@@H](CCCN)CN(C)Cc2ccccc2)c2ccccc12 [compound 85, (S)-4-methylnaphthalene-1-sulfonic acid {4-amino-1-[(benzylmethylamino)methyl]butyl}amide]
Cc1ccc(S(=O)(=O)N[C@@H](CCCN)COc2ccsc2)c2ccccc12 [compound 87, (S)-4-methylnaphthalene-1-sulfonic acid [4-amino-1-(thiophen-3-yloxymethyl)-butyl]-amide]
Cc1ccc(S(=O)(=O)N[C@@H](CCCN)COC(C)c2ccccc2)c2ccccc12 (stereo partly drawn) [compound 88, (S)-4-methyl-naphthalene-1-sulfonic acid [4-amino-1-(1-phenyl-ethoxy methyl)-butyl]-amide formic acid salt]
Cc1ccc(S(=O)(=O)N[C@H](CNCc2ccccc2)Cc2c[nH]cn2)c2ccccc12 [compound 93, (S)-4-methylnaphthalene-1-sulfonic acid [1-(benzylaminomethyl)-2-(1H-imidazol-4-yl)ethyl]amide]
Cc1ccc(S(=O)(=O)N[C@H](CNc2ccccc2)Cc2c[nH]cn2)c2ccccc12 [compound 94, (S)-4-methylnaphthalene-1-sulfonic acid [2-(1H-imidazol-4-yl)-1-phenylaminomethylethyl]amide]
Cc1ccc(S(=O)(=O)N[C@@H](CCN)COc2ccccc2)c2ccccc12 [compound 100, (S)-4-Methylnaphthalene-1-sulfonic acid (3-amino-1-phenoxymethylpropyl)amide]
Cc1ccc(S(=O)(=O)N[C@@H](CCCN)COCc2ccc(F)cc2)c2ccccc12 [compound 101, (S)-4-methylnaphthalene-1-sulfonic acid [4-amino-1-(4-fluorobenzyloxymethyl)butyl]amide]
Cc1ccc(S(=O)(=O)N[C@@H](CCCN)COCc2c(F)c(F)c(F)c(F)c2F)c2ccccc12 [compound 102, (S)-4-methylnaphthalene-1-sulfonic acid (4-amino-1-pentafluorophenylmethoxymethylbutyl)amide]
